Laboratory results published in paper PMC6510928, “Characterisation of the Ral GTPase inhibitor RBC8 in human and mouse platelets” (Cellular Signalling, 2019).

Assays:
RalB = biological target: T1, RalB (Homo sapiens, UniProt P11234); assay: GST-RalBP1 pulldown of RalB-GTP from RBC8-treated, CRP-stimulated human platelets, immunoblot densitometry; type: cell-based
T1 sequence (P11234 1-203): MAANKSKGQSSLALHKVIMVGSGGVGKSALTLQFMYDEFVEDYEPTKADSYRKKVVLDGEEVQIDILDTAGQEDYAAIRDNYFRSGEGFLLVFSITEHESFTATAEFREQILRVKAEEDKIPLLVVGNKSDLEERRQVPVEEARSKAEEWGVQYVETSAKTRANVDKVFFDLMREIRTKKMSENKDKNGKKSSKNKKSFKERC

RalA = biological target: T2, RalA (Homo sapiens, UniProt P11233); assay: GST-RalBP1 pulldown of RalA-GTP from RBC8-treated, CRP-stimulated human platelets, immunoblot densitometry; type: cell-based
T2 sequence (P11233 1-203): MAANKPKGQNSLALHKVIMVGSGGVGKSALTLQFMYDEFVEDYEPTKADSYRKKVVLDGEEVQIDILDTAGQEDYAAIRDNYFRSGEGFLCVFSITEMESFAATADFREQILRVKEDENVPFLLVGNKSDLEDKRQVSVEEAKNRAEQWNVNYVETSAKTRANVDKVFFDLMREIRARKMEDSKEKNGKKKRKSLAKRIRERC

IC50 (RalB): 2300 nM
IC50 (RalA): 2200 nM
SMILES: COc1ccc(OC)c(C2C(C#N)=C(N)Oc3n[nH]c(-c4ccc5ccccc5c4)c32)c1 (centres unmarked) [RBC8]
